Assay results: publication PMC9561728, “Safety and efficacy of a GLP-1 and glucagon receptor dual agonist mazdutide (IBI362) 9 mg and 10 mg in Chinese adults with overweight or obesity: A randomised, placebo-controlled, multiple-ascending-dose phase 1b trial” (eClinicalMedicine, 2022)
Where two headings read alike, the source gives them in different places.

What was measured:
[1] = Non-compartmental plasma pharmacokinetics, phase 1b trial; format: in vivo; conditions: human; for AUC(0-t) / Cmax: geometric mean (CV%); for AUC(0-t): n = 8, read-out: AUC0-168h; for Tmax: median (range); for Tmax / Cmax: n = 8; for Cmax: non-compartmental
Text: 6.3 PK/ PD assessment vari ables
6.3.1 PK Sample Collection
PK sampling will be performed according to the Schedule of Visits (Table 2, Table 4, Table 6), PK/PD Sampling Schedule (Table 3- 1, Table 3- 2, Table 5-1, Table 5- 2, Table 7-1, Table 7- 2), and ex aminations will be performed at a central laborator y. 3 m L of whole blood was collected into a […] vacutainer, plasma was separated, aliquoted and stored frozen for PK analysis of IBI362. Details of sampling methods, sample storage, transportation and analysis were provided in the Laboratory Manual provided by the central laboratory designated by the sponsor. […]
• Pharmacokinetic parameters, including but not limited to Tmax, Cmax, product under the concentration- time curve (AUC), volum e of distribution (Vd), half-life (T1/2), clearan ce (C L) an d accumulation co efficient (AR); […]

[2] = tested on: Chinese adults with overweight or obesity; experiment: Change from baseline in body weight, BMI and waist circumference (MMRM), phase 1b trial; format: in vivo, human; conditions: for Participants who achieved 10% body weight loss or more / Participants who achieved 15% body weight loss or more: during the study; for Participants who achieved 10% body weight loss or more / Participants who achieved 15% body weight loss or more / CFB in BMI / CFB in body weight / CFB in waist circumference / Percent CFB in body weight: n = 8
Experimental: (§1) Secondary outcomes included pharmacokinetics, assessed by maximum observed plasma concentration (Cmax), time at which Cmax was observed (Tmax), terminal elimination half-life (t½), and area under the curve from time zero to 168 h after the first dose (AUC0–168 h) and immunogenicity, assessed by titters of anti-drug antibodies (ADAs) and neutralizing antibodies. Secondary efficacy outcomes included the change from baseline to week 12 (9 mg cohort) or week 16 (10 mg cohort) in body weight, waist circumference, BMI, as well as the change from baseline in HbA1c, lipids, transaminase and serum uric acid levels.
The sample size of 12 participants per cohort was empirically determined to provide preliminary safety, tolerability, pharmacokinetics data while minimizing the number of participants. No formal hypothesis testing was planned. Participants receiving placebo were pooled for analysis on the change from baseline in body weight, waist circumference and BMI.
The analyses for the change from baseline in body weight, waist circumference and BMI were performed using mixed-effect model for repeated measures (MMRM), with least squares mean change or mean percent change from baseline at each follow-up time analysed using a restricted maximum likelihood (REML)‐based repeated measures approach in combination with the Newton Raphson Algorithm. The MMRM included the corresponding baseline value, treatment, visit and treatment-by-visit as fixed effects and patient as a random effect, with an unstructured covariance matrix used. In case of non-converge, matrix like Variance Components and Compound Symmetry will be tested in a subsequent order until model‐convergence is achieved. The Kenward-Roger degree of freedom was used in estimating fixed effects. No missing data imputation was conducted. Point estimate of treatment difference versus placebo at week 12 for the 9 mg cohort and at week 16 for the 10 mg cohort were provided, together with corresponding 95% CI and nominal p value.

[3] = tested on: Chinese adults with overweight or obesity; experiment: Vital signs and laboratory safety (heart rate, blood pressure, lipase, transaminases), phase 1b trial; format: in vivo, human; conditions: for Mean change from baseline in heart rate (maximum): placebo 4.3
Text: The primary outcomes were safety and tolerability of mazdutide.
(§2) Summaries for other efficacy and safety variables included descriptive statistics for continuous measures (mean and standard deviation or standard error) and for categorical measures (sample size, frequency and percentages).

[4] = tested on: Chinese adults with overweight or obesity; experiment: Immunogenicity: anti-drug antibodies and neutralizing antibodies, phase 1b trial; format: in vivo, human; conditions: for Participants who developed treatment-induced anti-mazdutide antibodies: n = 8
Experimental: as §1

[5] = tested on: Chinese adults with overweight or obesity; experiment: HbA1c and metabolic parameters, phase 1b trial; format: in vivo, human
Experimental: as §1, §2

[6] = Solubility of the study drug; format: physicochemical; conditions: study protocol
Experimental: (§3) 5.2.1 Physical and chemical characteristi cs of the study drug
(§4) Molecular Weight: 4560.32 Daltons
(§5) Description: White to off-white powder
(§6) Solubility: Solvent: 20 mM Tris buffer at pH 8.0 and 150 mM sodium chloride.
(§7) Solubility: Not less than 10 mg/mL at 25 ℃.
(§8) 5.2.2 Study Drug Strength and Manufacturer
(§9) The IB I362 dru g produ ct is IBI362 for injection an d consists of 2 mg IB I362 and the […]
(§10) contents are reconstituted with sterile water for injection to obtain a clear solution of […]
(§11) ingredients tris (hydroxymethyl) aminomethane, mannitol, and sucrose." The vial contents are reconstituted with sterile water for injection to obtain a clear solution devoid […]
(§12) The dru g product stren gt h used in this stud y was 2 mg/vial, and the placebo strengt h matched the drug product and was provided b y the Sponsor.
(§13) The drug product and placebo should be stored under refrigerated conditions (2 ℃ […]
(§14) 5.2.4 Mode of administration
(§15) Both IBI362 and placebo will be administered by subcutaneous injection once a week. Each dose should be prepared and injected by the stud y nurse. See the Instructions for Use fo rdetails of the preparation and use of the study drug.
(§16) 5.3.1 Prohibited Medications
(§17) The following m edicatio ns and measur es ar e cont raindicated:
(§18) 1. Growth hormone and its analogues;
(§19) 2. Any systemic corticosteroid (including intravenous, oral, intra-articular) administered for ≥ 7 da ys. […]

[7] = Isoelectric point (PI) of the study drug; format: physicochemical; conditions: study protocol
Experimental: as §3, §4, §5, §6, §7, §8, §9, §10, §11, §12, §13, §14, §15, §16, §17, §18, §19

[8] = tested on: Chinese adults with overweight or obesity; conditions: in vivo
Experimental: (§21) The study included a 3-week screening period, a 12-week or 16-week treatment period and an 8-week safety follow-up period. During the treatment period, mazdutide or placebo was subcutaneously administered once weekly with one of the following dose-escalation regimens: 9 mg cohort (3 mg weeks 1-4; 6 mg weeks 5-8; 9 mg weeks 9-12) and 10 mg cohort (2.5 mg weeks 1-4; 5 mg weeks 5-8; 7.5 mg weeks 9-12; 10 mg weeks 13-16) (Figure S1). The escalation regimen in the 10 mg cohort provided relatively slower titration (2.5 mg every 4 weeks) to the target dose of 10 mg, and the escalation regimen in the 9 mg cohort adopted faster titration (3 mg every 4 week). Participants were required to maintain the original diet, exercise and lifestyle during the trial.
(§22) The primary outcomes were safety and tolerability of mazdutide. […] The severity of the TEAEs (mild, moderate or severe) and the association between an event and the study drug was assessed by investigators based on pre-specified criteria.
(§23) Safety analyses were done in the safety population (defined as all participants who received at least one dose of the study treatment).

[9] = tested on: Chinese adults with overweight or obesity; conditions: low dose cohorts; cited from earlier work
Experimental: Summary Background Mazdutide (also known as IBI362 or LY3305677), a novel once-weekly glucagon-like peptide-1 (GLP-1) and glucagon receptor dual agonist, achieved 12-week body weight loss up to 6.4% at doses up to 6 mg in Chinese adults with overweight or obesity. We further explored the safety and efficacy of mazdutide dosed up to 9 mg and 10 mg. Methods In this randomised, placebo-controlled, multiple-ascending-dose phase 1b trial, we enrolled adults (aged 18-75 years, both inclusive) with overweight (body-mass index [BMI] ≥24 kg/m^2) accompanied by hyperphagia and/or at least one obesity-re ... || A PubMed search on July 4, 2022, with the terms “glucagon-like peptide-1″, [AND] “glucagon receptor”, [AND] “dual agonist”, in the Title or Abstract yielded 31 results. […] Mazdutide dosed up to 6 mg achieved 12-week mean body weight loss up to 6.4% in Chinese adults with overweight or obesity. || Mazdutide (also known as IBI362 or LY3305677) is a once-weekly mammalian oxyntomodulin analogue. […] In a phase 1b clinical trial in Chinese adults with overweight or obesity, mazdutide dosed up to 6 mg achieved 12-week mean body weight loss up to 6.4%.[11] Given the favourable safety profile and the robust body weight loss achieved in the low-dose cohort ... || (+ 2 further places)

Japanese and US subjects = conditions: single-dose (0.03, 0.1, 0.3, 1.0, 2.5, 5.0 mg) escalation, ref earlier single-dose studies quoted in protocol; cited from earlier work
human GLP-1 receptors = conditions: in vitro; cited from earlier work
Experimental: (§20) Mazdutide (also known as IBI362 or LY3305677) is a once-weekly mammalian oxyntomodulin analogue. […] In a phase 1b clinical trial in Chinese adults with overweight or obesity, mazdutide dosed up to 6 mg achieved 12-week mean body weight loss up to 6.4%.[11] Given the favourable safety profile and the robust body weight loss achieved in the low-dose cohort ...

human glucagon receptors = conditions: in vitro; cited from earlier work
Experimental: as §20

mice = conditions: cited from earlier work
Experimental: as §20

mouse GLP-1 receptors = conditions: in vitro; cited from earlier work
Experimental: as §20

mouse glucagon receptors = conditions: in vitro; cited from earlier work
Experimental: as §20

[10] = tested on: Chinese adults with overweight or obesity; experiment: Treatment-emergent adverse events, phase 1b trial, 9 mg and 10 mg cohorts; conditions: n = 8
Experimental: as §21, §22, §23

[11] = 9 mg cohort, week 12, LS mean (SE), MMRM
[12] = 9 mg cohort, week 12, estimate (95% CI), MMRM
[13] = 10 mg cohort, week 16, LS mean (SE), MMRM
[14] = 10 mg cohort, week 16, estimate (95% CI), MMRM
[15] = 9 mg cohort, week 12, participants without type 2 diabetes
[16] = 9 mg cohort (sc QW 3/6/9 mg, 4 wk each)
[17] = 10 mg cohort (sc QW 2.5/5/7.5/10 mg, 4 wk each)

## CC(C)C[C@H](NC(=O)[C@H](CC(C)C)NC(=O)[C@H](Cc1c[nH]c2ccccc12)NC(=O)[C@H](CCC(=O)O)NC(=O)[C@@H](NC(=O)[C@H](Cc1ccccc1)NC(=O)[C@H](CCC(=O)O)NC(=O)[C@H](CCCCNC(=O)COCCOCCNC(=O)COCCOCCNC(=O)CC[C@H](NC(=O)CCCCCCCCCCCCCCCCCCC(=O)O)C(=O)O)NC(=O)[C@H](C)NC(=O)[C@H](CCCCN)NC(=O)[C@H](CCCCN)NC(=O)[C@H](CCC(=O)O)NC(=O)[C@H](CC(=O)O)NC(=O)[C@H](CC(C)C)NC(=O)[C@H](Cc1ccc(O)cc1)NC(=O)[C@H](CCCCN)NC(=O)[C@H](CO)NC(=O)[C@H](Cc1ccc(O)cc1)NC(=O)[C@H](CC(=O)O)NC(=O)[C@H](CO)NC(=O)[C@@H](NC(=O)[C@H](Cc1ccccc1)NC(=O)[C@@H](NC(=O)CNC(=O)[C@H](CCC(N)=O)NC(=O)C(C)(C)NC(=O)[C@@H](N)Cc1c[nH]cn1)[C@@H](C)O)[C@@H](C)O)C(C)C)C(=O)N[C@@H](CCC(=O)O)C(=O)NCC(=O)NCC(=O)N1CCC[C@H]1C(=O)N[C@@H](CO)C(=O)N[C@@H](CO)C(=O)NCC(N)=O [Mazdutide]
[1]; after first sc dose 2.5 mg
  AUC(0-t): 21800 ng·h/mL
  Tmax: 72.3 h
  Cmax: 179 ng/mL
[1]; after first sc dose 3 mg
  AUC(0-t): 31400 ng·h/mL
  Tmax: 72.4 h
  Cmax: 226 ng/mL
[2]; 9 mg cohort
  Participants who achieved 10% body weight loss or more: 50%
  Participants who achieved 15% body weight loss or more: 25%
[2]; [11]
  CFB in BMI: −3.51 (0.46) kg/m^2
  CFB in body weight: −9.23 (1.2) kg
  CFB in waist circumference: −5.79 (1.45) cm
  Percent CFB in body weight: −11.7 (1.5) %
[2]; [12]
  CFB in BMI, ETD versus pooled placebo: −2.96 (−4.37, −1.54) kg/m^2
  CFB in body weight, ETD versus pooled placebo: −7.65 (−11.32, −3.98) kg
  CFB in waist circumference, ETD versus pooled placebo: −5.15 (−9.63, −0.67) cm
  Percent CFB in body weight, ETD versus pooled placebo: −9.8 (−14.4, −5.3) %
[2]; 10 mg cohort
  Participants who achieved 10% body weight loss or more: 50%
  Participants who achieved 15% body weight loss or more: 25%
[2]; [13]
  CFB in BMI: −2.96 (0.56) kg/m^2
  CFB in body weight: −7.62 (1.39) kg
  CFB in waist circumference: −3.36 (1.59) cm
  Percent CFB in body weight: −9.5 (1.7) %
[2]; [14]
  CFB in BMI, ETD versus placebo: −1.89 (−3.63, −0.15) kg/m^2
  CFB in body weight, ETD versus placebo: −4.76 (−9.10, −0.43) kg
  CFB in waist circumference, ETD versus placebo: −1.18 (−7.65, 5.29) cm
  Percent CFB in body weight, ETD versus placebo: −6.2 (−11.5, −0.9) %
[3]; 9 mg cohort
  Mean change from baseline in heart rate (maximum): up to 17.4 beats per minute
[3]; 10 mg cohort, 153 U/L at baseline, upper limit of normal 300 U/L, returned to normal at safety follow-up
  Lipase level in one participant at week 16: 739 U/L
[3]; 10 mg cohort
  Mean change from baseline in heart rate (maximum): ≤ 11.6 beats per minute
[3]; one participant in 9 mg cohort, one in 10 mg cohort
  Transaminase elevation in the two participants with ALT/AST increased: mild (within three times upper limit of normal) and transient
[4]; 9 mg cohort
  Participants who developed treatment-induced anti-mazdutide antibodies: Two
[4]; 10 mg cohort
  Participants who developed treatment-induced anti-mazdutide antibodies: four
[4]; 10 mg cohort, attenuated cAMP generation in CHO cells over-expressing human recombinant glucagon receptors
  Participants who developed neutralizing antibodies: One
[5]; [15]
  Participants with a 0.4% HbA1c reduction from baseline: three
  Participants with a 0.8% HbA1c reduction from baseline: two
[5]; 10 mg cohort, week 16, participants without type 2 diabetes
  Participants with a 0.4% HbA1c reduction from baseline: two
[5]; both dose regimens, compared with placebo
  Metabolic parameters including triglycerides, low density lipoprotein cholesterol, total cholesterol and serum uric acid: Greater improvements
[5]; high-dose cohorts
  Non-diabetic participants with slight elevation in end-of-treatment HbA1c levels: two
[6]; 20 mM Tris buffer at pH 8.0 and 150 mM sodium chloride, 25 ℃
  Solubility: Not less than 10 mg/mL
[6]
  Solubility Description: Sparingly or slightly soluble
[7]
  PI: 5.2
[8]
  Participants with treatment-emergent adverse events: 100%
  Severity of treatment-emergent adverse events: all mild or moderate in severity
[9]
  Incidence of abdominal distension: 12.5%
  Incidence of diarrhoea: 37.5%
  Incidence of nausea: up to 37.5%
  Incidence of vomiting: 12.5%
Japanese and US subjects
  maximum tolerated dose (MTD) of single-dose study: 2.5 mg
Human GLP-1 receptors
  Binding to human GLP-1 receptors: potently bound
Human glucagon receptors
  Binding to human glucagon receptors: potently bound
mice; both Gcgr knockout (KO) and Glp1r KO settings
  Body weight: decreased body weight
mice
  Energy expenditure: increased energy expenditure
  Glucose control: improved glucose control
Mouse GLP-1 receptors
  Binding to mouse GLP-1 receptors: potently bound
Mouse glucagon receptors
  Binding to mouse glucagon receptors: potently bound
[10]; [16]
  TEAE: Infections and infestations (system organ class): 6 (75.0) n (%)
  TEAE: Upper respiratory tract infection: 3 (37.5) n (%)
  TEAE: Urinary tract infection: 4 (50) n (%)
[10]; [17]
  TEAE: Infections and infestations (system organ class): 5 (62.5) n (%)
  TEAE: Upper respiratory tract infection: 4 (50) n (%)
  TEAE: Urinary tract infection: 2 (25) n (%)
